# In patent publication US12275729B2 (Merck Sharp & Dohme LLC, priority 2017, dated 2025):
# Where a name gives a salt, the structure may show the parent alone.
# How the values were obtained:
# IDO1 [1] = target: T1, IDO1 (Homo sapiens, UniProt P14902); assay: IDO1 Human Whole Blood Assay; format: cell-based; set-up: Human whole blood was drawn in sodium heparin coated tubes from healthy internal donors; from tissue; host or cells: human whole blood from healthy donors, stimulated with LPS and IFNγ; details: LPS and IFNγ stimulated
# T1 sequence (P14902 whole entry): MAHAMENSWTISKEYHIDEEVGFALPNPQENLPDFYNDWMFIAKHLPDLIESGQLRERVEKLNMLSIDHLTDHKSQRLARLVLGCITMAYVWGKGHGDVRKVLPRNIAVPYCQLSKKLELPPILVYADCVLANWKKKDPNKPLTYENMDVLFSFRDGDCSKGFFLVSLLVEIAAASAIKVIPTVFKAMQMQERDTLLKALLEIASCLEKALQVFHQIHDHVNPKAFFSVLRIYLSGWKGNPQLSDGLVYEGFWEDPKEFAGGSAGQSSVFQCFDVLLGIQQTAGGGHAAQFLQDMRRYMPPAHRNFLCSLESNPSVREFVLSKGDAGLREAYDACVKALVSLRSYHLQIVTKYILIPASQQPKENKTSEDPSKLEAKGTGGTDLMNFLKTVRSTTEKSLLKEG
# Method: IDO1 Human Whole Blood Assay
# Compounds to be tested were serially diluted in ten 3-fold steps in DMSO starting from 10 mM. […] LPS and IFNγ was prepared in RPMI to a 10× of final conc. (1000 ng/mL), final concentration is 100 ng/mL.
# Human whole blood was drawn in sodium heparin coated tubes from healthy internal donors. 240 μL of blood was transferred to each of the wells of a v-bottom 96 well plate. 30 μL of compound was transferred from intermediate dilution plate, and incubated for 15 min. 30 μL from stimulants was then transferred to blood and mixed thoroughly.
# On day 2 isotope labeled standard of kynurenine and tryptophan was made in water at 1Ox concentration and 30 μL was added to the blood at […] final concentration. The assay plates were centrifuged at 300×G for 10 min with no brake to separate plasma from red blood cells. 60 μL of plasma samples was removed without disturbing red blood cells. Plasma was diluted with RPMI in 1:1 ratio and proteins were precipitated out with two volume of Acetonitrile. The plates were centrifuged at 4000×G for 60 min. 20 μL of supernatant was carefully transferred to a 384 well plate contain 40 μL of 0.1% formic acid in water and analyzed by LC/MS/MS.
# LC/MS/MS analyses were performed using Thermo Fisher's LX4-TSQ Quantum Ultra system. This system consists of four Agilent binary high-performance liquid chromatography (HPLC) pumps and a TSQ Quantum Ultra triple quadrupole MS/MS instrument. For each sample, 5 μL were injected onto an Atlantis T3 column (2.1 mm×150 mm, […] particle size) from Waters. The mobile phase gradient pumped at 0.8 mL/min was used to elute the analytes from the column at 25° C. […] Mobile phase A consisted of 0.1% formic acid in water. Mobile phase B consisted of 0.1% of formic acid in acetonitrile. Data was acquired in positive mode using a HESI interface. The operational parameters for the TSQ Quantum Ultra instrument were a spray voltage of 4000 V, capillary temperature of 380° C., vaporizer temperature 400° C., shealth gas 60 arbitrary units, Aux gas 20 arbitrary units, tube lens 85 and collision gas 1.2 mTorr. […] The peak area was integrated by Xcalibur Quan software. The ratios between the kynurenine generated in the reaction and 2D6-Kynurenine spiked-in internal standard were used to generate percentage inhibition and IC50 values.
# IDO1 [2] = target: T1, IDO1; assay: IDO1 Cellular Assay in HeLa Cells Stimulated with IFNγ; format: cell-based; details: read-out: Hela IC50
Structure (SMILES),IC50 (IDO1 [1]),IC50 (IDO1 [2]; about 48 hours),IC50 (IDO1 [2]),IC50 (IDO1 [2]; value in running text)
"O=C(OC1CC1)N1CCc2cc(C3(C(=O)Nc4ccc(F)cc4)CCC3)ccc21 [Example 270, cyclopropyl 5-{1-[(4-fluorophenyl)carbamoyl]cyclobutyl}-2,3-dihydro-1H-indole-1-carboxylate]",41 nM,1.2 nM,,
"CCc1ccnc(C(=O)N2CCCc3nc(C(C)NC(=O)c4ccc(Cl)cc4)ccc32)c1 (stereo not shown) [Example 286, 4-chloro-N-(1-(5-(4-ethylpicolinoyl)-5,6,7,8-tetrahydro-1,5-naphthyridin-2-yl)ethyl)benzamide]",89 nM,1.2 nM,,
"Cc1nccc(N2CCCc3nc(C(C)(C)C(=O)Nc4ccc(F)cc4)ccc32)n1 [Example 389, N-(4-fluorophenyl)-2-methyl-2-(5-(2-methylpyrimidin-4-yl)-5,6,7,8-tetrahydro-1,5-naphthyridin-2-yl)propanamide]",44 nM,2.92 nM,,
"O=C(C1CC1)N1CCc2nc(C3(C(=O)Nc4ccc(F)cc4)CCC3)ccc21 [Example 268, 1-[1-(cyclopropanecarbonyl)-2,3-dihydro-1H-pyrrolo[3,2-b]pyridin-5-yl]-N-(4-fluorophenyl)cyclobutane-1-carboxamide]",325 nM,7.9 nM,,
"CC(NC(=O)c1ccc(F)cc1)c1ccc2c(n1)CCCN2C(=O)c1ccn(C)n1 (stereo not shown) [Example 138, 4-fluoro-N-{1-[5-(1-methyl-1H-pyrazole-3-carbonyl)-5,6,7,8-tetrahydro-1,5-naphthyridin-2-yl]ethyl}benzamide]",67 nM,6.3 nM,,
"CC(C(=O)Nc1ccc(F)cc1)c1ccc2c(c1)CCCN2C(=O)c1cc(C(F)F)ccn1 (stereo not shown) [Example 38, 2-{1-[4-(difluoromethyl)pyridine-2-carbonyl]-1,2,3,4-tetrahydroquinolin-6-yl}-N-(4-fluorophenyl)propanamide]",36 nM,5.7 nM,,
"CC(NC(=O)c1ccc(Cl)cc1)c1ccc2c(n1)CCCN2c1ccnc(C(F)(F)F)n1 (stereo not shown) [Example 345, 4-chloro-N-(1-(5-(2-(trifluoromethyl)pyrimidin-4-yl)-5,6,7,8-tetrahydro-1,5-naphthyridin-2-yl)ethyl)benzamide]",32 nM,,1.72 nM,
"Cc1cncc(N2CCCc3nc(C4(NC(=O)c5ccc(Cl)cc5)CCC4)ccc32)c1 [Example 406, 4-chloro-N-(1-(5-(5-methylpyridin-3-yl)-5,6,7,8-tetrahydro-1,5-naphthyridin-2-yl)cyclobutyl)benzamide]",2980 nM,3.18 nM,,
"O=C(N[C@@H](c1ccc2c(n1)CCCN2C(=O)C1CC1)C(F)(F)F)c1ccc(F)cc1 [Example 425, (S)—N-(1-(5-(cyclopropanecarbonyl)-5,6,7,8-tetrahydro-1,5-naphthyridin-2-yl)-2,2,2-trifluoroethyl)-4-fluorobenzamide]",29 nM,,235 nM,
"Cc1ncnc(N2CCCc3nc(C(C)NC(=O)c4ccc(Cl)cc4)ccc32)c1C (stereo not shown) [Example 347, 4-chloro-N-(1-(5-(5,6-dimethylpyrimidin-4-yl)-5,6,7,8-tetrahydro-1,5-naphthyridin-2-yl)ethyl)benzamide]",340 nM,,156 nM,
"CC(NC(=O)c1ccc(F)cc1)c1ccc2c(n1)CCCN2C(=O)c1cc(C(F)(F)F)ccn1 (stereo not shown) [Example 278, 4-fluoro-N-(1-(5-(4-(trifluoromethyl)picolinoyl)-5,6,7,8-tetrahydro-1,5-naphthyridin-2-yl)ethyl)benzamide]",50 nM,472 nM,,
"C[C@H](C(=O)Nc1ccc(F)cc1)c1ccc2c(c1)CCCN2C(=O)C1CCOCC1 [Example 81, (2S)-N-(4-fluorophenyl)-2-[1-(oxane-4-carbonyl)-1,2,3,4-tetrahydroquinolin-6-yl]propanamide]",99 nM,4.8 nM,,
"Cc1nccc(N2CCCc3nc(C4(C(=O)Nc5ccc(F)cc5)CC4(F)F)ccc32)n1 (single isomer, unassigned) [Example 421, 2,2-difluoro-N-(4-fluorophenyl)-1-(5-(2-methylpyrimidin-4-yl)-5,6,7,8-tetrahydro-1,5-naphthyridin-2-yl)cyclopropanecarboxamide]",65 nM,,2.64 nM,
"CC(NC(=O)c1ccc(Cl)cc1)c1ccc2c(n1)CCCN2c1nc(C(F)(F)F)nc2ccccc12 (stereo not shown) [Example 358, 2-(1-(4-chlorobenzamido)ethyl)-5-(2-(trifluoromethyl)quinazolin-4-yl)-5,6,7,8-tetrahydro-1,5-naphthyridin-1-ium 2,2,2-trifluoroacetate]",1000 nM,,4.24 nM,
"CC(NC(=O)c1ccc(F)cc1)c1ccc2c(n1)CCCN2C(=O)c1cc(Cl)cc(Cl)c1 (stereo not shown) [Example 149, N-{1-[5-(3,5-dichlorobenzene-1-carbonyl)-5,6,7,8-tetrahydro-1,5-naphthyridin-2-yl]ethyl}-4-fluorobenzamide]",33 nM,3.2 nM,,

# These reach a lower IC50 (IDO1 [1]). Values come first.
IC50 (IDO1 [1]),IC50 (IDO1 [2]; about 48 hours),IC50 (IDO1 [2]),IC50 (IDO1 [2]; value in running text),Structure (SMILES)
3 nM,1.68 nM,,,"Cc1nccc(N2CCCc3nc(C4(NC(=O)c5ccc(F)cc5)CCC4)ccc32)n1 [Example 402, 4-fluoro-N-(1-(5-(2-methylpyrimidin-4-yl)-5,6,7,8-tetrahydro-1,5-naphthyridin-2-yl)cyclobutyl)benzamide]"
26 nM,1.7 nM,,,"CC(NC(=O)c1ccc(F)cc1)c1ccc2c(n1)CCCN2C(=O)c1ccccc1Cl (stereo not shown) [Example 141, N-{1-[5-(2-chlorobenzene-1-carbonyl)-5,6,7,8-tetrahydro-1,5-naphthyridin-2-yl]ethyl}-4-fluorobenzamide]"
12 nM,,0.73 nM,,"O=C(OC1CC1)N1CCCc2nc(C3(C(=O)Nc4ccc(F)cc4)CC4(CC4)C3)ccc21 [Example 417, cyclopropyl 6-(5-((4-fluorophenyl)carbamoyl)spiro[2.3]hexan-5-yl)-3,4-dihydro-1,5-naphthyridine-1(2H)-carboxylate]"
12 nM,,1.09 nM,1 nM,"Cc1nccc(N2CCCc3nc(C4(C(=O)Nc5ccc(F)cc5)CC(F)(F)C4)ccc32)n1 [Example 420, 3,3-difluoro-N-(4-fluorophenyl)-1-(5-(2-methylpyrimidin-4-yl)-5,6,7,8-tetrahydro-1,5-naphthyridin-2-yl)cyclobutanecarboxamide]"
26 nM,,6.84 nM,6.8 nM,"Cc1nccc(N2CCCc3nc(C4(C(=O)Nc5ccc(F)cc5)CC(OCc5ccccc5)C4)ccc32)n1 (stereo not shown) [Example 423, 2-(3-(benzyloxy)-1-((4-fluorophenyl)carbamoyl)cyclobutyl)-5-(2-methylpyrimidin-4-yl)-5,6,7,8-tetrahydro-1,5-naphthyridin-1-ium 2,2,2-trifluoroacetate]"
12 nM,,1.7 nM,,"Cc1nccc(N2CCCc3nc(C4(C(=O)Nc5ccc(F)cc5)CC4(F)F)ccc32)n1 (single isomer, unassigned) [Example 422, 2,2-difluoro-N-(4-fluorophenyl)-1-(5-(2-methylpyrimidin-4-yl)-5,6,7,8-tetrahydro-1,5-naphthyridin-2-yl)cyclopropanecarboxamide]"
7 nM,1.93 nM,,,"Cc1nccc(N2CCCc3nc(C4(C(=O)Nc5ccc(Cl)cc5)COC4)ccc32)n1 [Example 394, N-(4-chlorophenyl)-3-(5-(2-methylpyrimidin-4-yl)-5,6,7,8-tetrahydro-1,5-naphthyridin-2-yl)oxetane-3-carboxamide]"
17 nM,2.7 nM,,,"CC(NC(=O)c1ccc(Cl)cc1)c1ccc2c(n1)CCCN2C(=O)c1cc(C(F)F)ccn1 (stereo not shown) [Example 289, 4-chloro-N-(1-(5-(4-(difluoromethyl)picolinoyl)-5,6,7,8-tetrahydro-1,5-naphthyridin-2-yl)ethyl)benzamide]"
17 nM,,3.79 nM,,"COCCOC(=O)N1CCCc2nc(C3(NC(=O)c4ccc(Cl)cc4)CCC3)ccc21 [Example 413, 2-methoxyethyl 6-(1-(4-chlorobenzamido)cyclobutyl)-3,4-dihydro-1,5-naphthyridine-1(2H)-carboxylate]"
16 nM,,1.82 nM,,"Cc1nccc(N2CC(F)Cc3cc(C4(NC(=O)c5ccc(Cl)cc5)CC4)ccc32)n1 (racemic) [Example 437, 4-chloro-N-(1-(3-fluoro-1-(2-methylpyrimidin-4-yl)-1,2,3,4-tetrahydroquinolin-6-yl)cyclopropyl)benzamide, 2,2,2-trifluoroacetate salt]"
